Measured values: PubChem BioAssay AID1259407 (Chemical Carcinogenesis Research Information System (CCRIS), 2018)
The source made the active and inactive calls. How the calls were made is not given here.

Test system: CCRIS mutagenicity, Ames/micronucleus/aberration tests
Test: CCRIS mutagenicity studies
[1] = Test System: AMES SALMONELLA TYPHIMURIUM, Strain/Indicator: TA97, Metabolic Activation: NONE, Method: PREINCUBATION
[2] = Test System: AMES SALMONELLA TYPHIMURIUM, Strain/Indicator: TA98, Metabolic Activation: NONE, Method: PREINCUBATION
[3] = Test System: AMES SALMONELLA TYPHIMURIUM, Strain/Indicator: TA100, Metabolic Activation: NONE, Method: PREINCUBATION
[4] = Test System: AMES SALMONELLA TYPHIMURIUM, Strain/Indicator: TA100, Metabolic Activation: NONE, Method: STANDARD PLATE
[5] = Test System: AMES SALMONELLA TYPHIMURIUM, Strain/Indicator: TA100, Metabolic Activation: RAT, LIVER, S-9, AROCLOR 1254, Method: PREINCUBATION
[6] = Test System: MOUSE LYMPHOMA, Strain/Indicator: L5178Y (TK+/TK-), Metabolic Activation: NONE, Method: SUSPENSION/PLATE

Oc1c(I)cc(Cl)c2cccnc12
mutagenic call (Test System: AMES SALMONELLA TYPHIMURIUM, Strain/Indicator: TA97, Metabolic Activation: HAMSTER, LIVER, S-9, AROCLOR 1254 (10%), Method: PREINCUBATION): inactive; negative | mutagenic call (Test System: AMES SALMONELLA TYPHIMURIUM, Strain/Indicator: TA97, Metabolic Activation: HAMSTER, LIVER, S-9, AROCLOR 1254 (30%), Method: PREINCUBATION): inactive; negative | mutagenic call [1]: inactive; negative | mutagenic call (Test System: AMES SALMONELLA TYPHIMURIUM, Strain/Indicator: TA97, Metabolic Activation: RAT, LIVER, S-9, AROCLOR 1254 (10%), Method: PREINCUBATION): inactive; negative | mutagenic call (Test System: AMES SALMONELLA TYPHIMURIUM, Strain/Indicator: TA97, Metabolic Activation: RAT, LIVER, S-9, AROCLOR 1254 (30%), Method: PREINCUBATION): inactive; negative | mutagenic call (Test System: AMES SALMONELLA TYPHIMURIUM, Strain/Indicator: TA98, Metabolic Activation: HAMSTER, LIVER, S-9, AROCLOR 1254 (10%), Method: PREINCUBATION): inactive; negative | mutagenic call (Test System: AMES SALMONELLA TYPHIMURIUM, Strain/Indicator: TA98, Metabolic Activation: HAMSTER, LIVER, S-9, AROCLOR 1254 (30%), Method: PREINCUBATION): inactive; negative | mutagenic call [2]: inactive; negative | mutagenic call (Test System: AMES SALMONELLA TYPHIMURIUM, Strain/Indicator: TA98, Metabolic Activation: RAT, LIVER, S-9, AROCLOR 1254 (10%), Method: PREINCUBATION): inactive; negative | mutagenic call (Test System: AMES SALMONELLA TYPHIMURIUM, Strain/Indicator: TA98, Metabolic Activation: RAT, LIVER, S-9, AROCLOR 1254 (30%), Method: PREINCUBATION): inactive; negative | mutagenic call (Test System: AMES SALMONELLA TYPHIMURIUM, Strain/Indicator: TA100, Metabolic Activation: HAMSTER, LIVER, S-9, AROCLOR 1254 (10%), Method: PREINCUBATION): inactive; negative | mutagenic call (Test System: AMES SALMONELLA TYPHIMURIUM, Strain/Indicator: TA100, Metabolic Activation: HAMSTER, LIVER, S-9, AROCLOR 1254 (30%), Method: PREINCUBATION): inactive; negative | mutagenic call [3]: inactive; negative | mutagenic call (Test System: AMES SALMONELLA TYPHIMURIUM, Strain/Indicator: TA100, Metabolic Activation: RAT, LIVER, S-9, AROCLOR 1254 (10%), Method: PREINCUBATION): inactive; negative | mutagenic call (Test System: AMES SALMONELLA TYPHIMURIUM, Strain/Indicator: TA100, Metabolic Activation: RAT, LIVER, S-9, AROCLOR 1254 (30%), Method: PREINCUBATION): inactive; negative | mutagenic call (Test System: AMES SALMONELLA TYPHIMURIUM, Strain/Indicator: TA1535, Metabolic Activation: HAMSTER, LIVER, S-9, AROCLOR 1254 (10%), Method: PREINCUBATION): inactive; negative | mutagenic call (Test System: AMES SALMONELLA TYPHIMURIUM, Strain/Indicator: TA1535, Metabolic Activation: HAMSTER, LIVER, S-9, AROCLOR 1254 (30%), Method: PREINCUBATION): inactive; negative | mutagenic call (Test System: AMES SALMONELLA TYPHIMURIUM, Strain/Indicator: TA1535, Metabolic Activation: NONE, Method: PREINCUBATION): inactive; negative | mutagenic call (Test System: AMES SALMONELLA TYPHIMURIUM, Strain/Indicator: TA1535, Metabolic Activation: RAT, LIVER, S-9, AROCLOR 1254 (10%), Method: PREINCUBATION): inactive; negative | mutagenic call (Test System: AMES SALMONELLA TYPHIMURIUM, Strain/Indicator: TA1535, Metabolic Activation: RAT, LIVER, S-9, AROCLOR 1254 (30%), Method: PREINCUBATION): inactive; negative | mutagenic call (Test System: AMES SALMONELLA TYPHIMURIUM, Strain/Indicator: TA1537, Metabolic Activation: HAMSTER, LIVER, S-9, AROCLOR 1254 (30%), Method: PREINCUBATION): inactive; negative | mutagenic call (Test System: AMES SALMONELLA TYPHIMURIUM, Strain/Indicator: TA1537, Metabolic Activation: NONE, Method: PREINCUBATION): inactive; negative | mutagenic call (Test System: AMES SALMONELLA TYPHIMURIUM, Strain/Indicator: TA1537, Metabolic Activation: RAT, LIVER, S-9, AROCLOR 1254 (30%), Method: PREINCUBATION): inactive; negative

CC(=O)ON(OCc1ccc(C(C)(C)C)cc1)C(=O)c1ccccc1
mutagenic call [4]: active; positive

Cc1cn([C@H]2C[C@H](O)[C@@H](CO)O2)c(=O)[nH]c1=O
mutagenic call [1]: inactive; negative | mutagenic call (Test System: AMES SALMONELLA TYPHIMURIUM, Strain/Indicator: TA97, Metabolic Activation: RAT, LIVER, S-9, AROCLOR 1254, Method: PREINCUBATION): inactive; negative | mutagenic call [3]: inactive; negative | mutagenic call [5]: inactive; negative | mutagenic call (Test System: CHINESE HAMSTER V-79, Strain/Indicator: V-79 (HPRT)/6-THIOGUANINE, Metabolic Activation: NONE, Method: STANDARD PLATE): inactive; negative | mutagenic call (Test System: CHINESE HAMSTER V-79, Strain/Indicator: V-79/6-THIOGUANINE, Metabolic Activation: NONE, Method: STANDARD PLATE): active; positive | mutagenic call (Test System: CHINESE HAMSTER V-79, Strain/Indicator: V-79/8-AZAGUANINE, Metabolic Activation: NONE): inactive; negative

COc1cc2c(c3oc(=O)c4c(c13)CCC4=O)[C@H]1[C@@H](O2)O[C@@H]2O[C@@H]21
mutagenic call [2]: active; positive | mutagenic call (Test System: AMES SALMONELLA TYPHIMURIUM, Strain/Indicator: TA98, Metabolic Activation: RAT, LIVER, S-9, AROCLOR 1254, Method: PREINCUBATION): active; positive | mutagenic call (Test System: AMES SALMONELLA TYPHIMURIUM, Strain/Indicator: TA100, Metabolic Activation: NONE, Method: MICROSUSPENSION): active; positive | mutagenic call [3]: active; positive | mutagenic call (Test System: AMES SALMONELLA TYPHIMURIUM, Strain/Indicator: TA100, Metabolic Activation: RAT, LIVER, S-9, AROCLOR 1254, Method: MICROSUSPENSION): active; positive | mutagenic call [5]: active; positive

CC(C)(C)OC(=O)C=Cc1ccc([N+](=O)[O-])o1
mutagenic call [2]: active; positive

Cn1c(N=[N+]=[N-])nc2ncc(-c3ccccc3)cc21
mutagenic call (Test System: AMES SALMONELLA TYPHIMURIUM, Strain/Indicator: TA98(1,8-DNP6), Metabolic Activation: NONE, Method: PREINCUBATION): active; positive | mutagenic call (Test System: AMES SALMONELLA TYPHIMURIUM, Strain/Indicator: TA98(NR), Metabolic Activation: NONE, Method: PREINCUBATION): active; positive | mutagenic call [2]: active; positive | mutagenic call (Test System: AMES SALMONELLA TYPHIMURIUM, Strain/Indicator: YG1024, Metabolic Activation: NONE, Method: PREINCUBATION): active; positive

CC(=O)O[C@@H]1C(=O)O[C@H]2[C@@H]1OC(=O)[C@@H]2OC(C)=O
mutagenic call (Test System: AMES SALMONELLA TYPHIMURIUM, Strain/Indicator: TA98, Metabolic Activation: NONE, Method: STANDARD PLATE): inactive; negative | mutagenic call (Test System: AMES SALMONELLA TYPHIMURIUM, Strain/Indicator: TA98, Metabolic Activation: S-9, Method: STANDARD PLATE): inactive; negative | mutagenic call [4]: inactive; negative | mutagenic call (Test System: AMES SALMONELLA TYPHIMURIUM, Strain/Indicator: TA100, Metabolic Activation: S-9, Method: STANDARD PLATE): inactive; negative | mutagenic call (Test System: AMES SALMONELLA TYPHIMURIUM, Strain/Indicator: TA1537, Metabolic Activation: S-9, Method: STANDARD PLATE): inactive; negative | mutagenic call (Test System: E. COLI, Strain/Indicator: WP2 (HCR), Metabolic Activation: NONE, Method: STANDARD PLATE): inactive; negative | mutagenic call (Test System: E. COLI, Strain/Indicator: WP2 (HCR), Metabolic Activation: S-9, Method: STANDARD PLATE): inactive; negative

COc1cc(Nc2c3ccccc3nc3ccccc23)ccc1NS(C)(=O)=O
mutagenic call [6]: active; positive

CC(C)=CC(=O)C=C(C)C
mutagenic call [6]: inactive; negative

O[C@H]1C=Cc2c(cc3c4c(c5ccccc5cc24)-c2ccccc2-3)[C@@H]1O
mutagenic call (Test System: AMES SALMONELLA TYPHIMURIUM, Strain/Indicator: TA100, Metabolic Activation: MOUSE, LIVER, S-9, 3-METHYLCHOLANTHRENE, Method: STANDARD PLATE): active; positive | mutagenic call (Test System: AMES SALMONELLA TYPHIMURIUM, Strain/Indicator: TA100, Metabolic Activation: RAT, LIVER, S-9, 3-METHYLCHOLANTHRENE, Method: STANDARD PLATE): active; positive

CCOC(=O)NC
mutagenic call [6]: inactive; negative | mutagenic call (Test System: MOUSE LYMPHOMA, Strain/Indicator: L5178Y (TK+/TK-), Metabolic Activation: RAT, LIVER, S-9, AROCLOR 1254, Method: SUSPENSION/PLATE): active; positive
